Data published in patent publication US4305950A, “Pharmaceutical agent containing amino derivatives of 2-methyl-5-(2-hydroxystyryl)-1,3,4-thiadiazole” (BASF Aktiengesellschaft, priority 1978, dated 1981).

Assays:
cardiac beta-1-receptors = molecular target: T1, cardiac beta-1-receptors (Felis catus, UniProt Q9TST6); test: Beta-sympatholytic action: inhibition of isoproterenol-induced tachycardia in narcotized cats; type: in vivo; conditions: for Beta-sympatholytic action, R.A. (relative activity): Propranolol = 1.00, cats, intravenous; for factor by which doses blocking cardiac beta-1-receptors are lower than those of propranolol: compared to propranolol
T1 construct: in narcotized cats (weight 2-4 kg); from tissue; host or cells: heart of the living narcotized cat (in vivo)
T1 sequence (Q9TST6 whole entry): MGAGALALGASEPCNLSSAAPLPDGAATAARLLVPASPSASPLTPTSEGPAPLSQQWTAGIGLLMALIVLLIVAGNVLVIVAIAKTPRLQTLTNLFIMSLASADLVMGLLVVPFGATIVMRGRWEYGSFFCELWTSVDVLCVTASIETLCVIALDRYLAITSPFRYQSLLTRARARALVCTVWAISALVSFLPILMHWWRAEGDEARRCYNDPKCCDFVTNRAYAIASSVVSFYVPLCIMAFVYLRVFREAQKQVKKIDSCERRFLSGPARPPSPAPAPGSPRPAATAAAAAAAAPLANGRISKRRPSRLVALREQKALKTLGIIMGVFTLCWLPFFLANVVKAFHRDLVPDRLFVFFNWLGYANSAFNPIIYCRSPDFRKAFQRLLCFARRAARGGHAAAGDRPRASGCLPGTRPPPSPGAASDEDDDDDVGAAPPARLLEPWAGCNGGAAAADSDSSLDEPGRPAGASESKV
Text: The following test methods were used:
Beta-sympatholytic agents inhibit such tachycardia.
^(1) Inhibition of isoproterenolinduced tachycardia in cats under
hexobarbital narcosis. Intravenous administration.
^(2) Dose (mg/kg) which inhibits the isoproterenolinduced tachycardia

female NMRI mice = type: in vivo; conditions: for Therapeutic range, relative: mouse, in vivo

| SMILES | Beta-sympatholytic action, R.A. (relative activity) (cardiac beta-1-receptors) | ED50 (cardiac beta-1-receptors; cat, cats under hexobarbital narcosis, intravenous administration, read-out: Beta-sympatholytic action, ED 50% (dose which inhibits the isoproterenol-induced tachycardia by 50%)) | factor by which doses blocking cardiac beta-1-receptors are lower than those of propranolol (cardiac beta-1-receptors) | Therapeutic range, relative (female NMRI mice) | factor by which the therapeutic range is increased, compared to propranolol (female NMRI mice) |
| --- | --- | --- | --- | --- | --- |
| Cc1nnc(C=Cc2ccccc2OCC(O)CNC(C)(C)C)s1 (stereo not shown) [Example 3, 2-Methyl-5-[2-(2-hydroxy-3-tert.-butylamino-propoxy)-styryl]-1,3,4-thiadiazole] | 25.22 | 5.59 µg/kg | 25 | 13.73 | – |
| C#CC(C)NCC(O)COc1ccccc1C=Cc1nnc(C)s1 (stereo not shown) [Example 7, 2-Methyl-5-[2-(2-hydroxy-3-(but-1-ynyl-3-amino)-propoxy)-styryl]-1,3,4-thiadiazole] | 12.70 | – | – | 30.68 | 30.7 |
| Cc1nnc(C=Cc2ccccc2OCC(O)CNC2CC2)s1 (stereo not shown) [Example 2, 2-Methyl-5-[2-(2-hydroxy-3-cyclopropylamino-propoxy)-styryl]-1,3,4-thiadiazole] | 11.75 | – | 12 | 7.55 | 7.6 |
| Cc1nnc(C=Cc2ccccc2OCC(O)CNC(C)C)s1 (stereo not shown) [Example 1, 2-Methyl-5-[2-(2-hydroxy-3-isopropylamino-propoxy)-styryl]-1,3,4-thiadiazol] | 14.10 | – | – | 10.84 | – |
